Patent US11834463B2, “High affinity macrocyclic FKB51-inhibitors for treatment of psychiatric disorders” (priority 2020, dated 2023)
Read-outs that look alike come from different tables or passages of the source.

Experiments:
[1] = target: FKBP12 (Homo sapiens, UniProt P62942); experiment: competitive fluorescence polarization assay, binding to FKBP12
Experimental: (§1) All macrocyclic compounds were tested in a competitive fluorescence polarization assay for binding towards FKBP51 as well as the homologs FKBP12, FKBP12.6 and FKBP52 (Table 1).
(§2) Example 8: […] of the Macrocyclic FKBP51 Ligands by SPPS

[2] = target: T1, FKBP51FK1 (Homo sapiens, UniProt Q13451); experiment: biochemical
T1 sequence (Q13451 42-130 limits assumed): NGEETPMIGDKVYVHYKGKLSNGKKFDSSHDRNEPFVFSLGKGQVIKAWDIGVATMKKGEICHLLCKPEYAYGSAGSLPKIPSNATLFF
Experimental: as §1, §2

[3] = target: FKBP12.6 (Homo sapiens, UniProt P68106); experiment: competitive fluorescence polarization assay, binding to FKBP12.6
Sequence of FKBP12.6 (P68106 whole entry): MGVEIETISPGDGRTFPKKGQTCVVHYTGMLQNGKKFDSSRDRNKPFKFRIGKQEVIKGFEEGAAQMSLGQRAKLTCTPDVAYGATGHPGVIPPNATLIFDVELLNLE
Experimental: as §1, §2

[4] = Table 1, competitive Fluorescence Polarization Assay, read-out: Ki [nM] FKBP12
[5] = Ki [nM] FKBP51FK1, Table 1, competitive Fluorescence Polarization Assay
[6] = Table 1, competitive Fluorescence Polarization Assay, read-out: Ki [nM] FKBP12.6

Sequence of FKBP12 (P62942 whole entry): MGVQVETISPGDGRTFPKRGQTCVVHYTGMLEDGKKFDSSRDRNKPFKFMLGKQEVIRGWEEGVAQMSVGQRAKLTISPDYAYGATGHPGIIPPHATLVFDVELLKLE

SMILES | Ki [1, 4] | Ki [2, 5] | Ki [3, 6] | further results
COc1ccc(CC[C@H]2OC(=O)[C@@H]3CCCCN3C(=O)[C@@H](C3CCCCC3)NC(=O)CCNC(=O)COc3cccc2c3)cc1OC [Compound 93, (2R,5S,12R)-12-cyclohexyl-2-[2-(3,4-dimethoxyphenyl)ethyl]-3,20-dioxa-10,13,17-triazatricyclo[19.3.1.0^5,10]pentacosa-1(25),21,23-triene-4,11,14,18-tetrone] | – | – | – | Ki ([1]; Table 2, read-out: FKBP12 Ki): > 80000 nM; affinity (in words) [2]: reduced affinity; Ki ([2]; FKBP51FK1 Ki [μM], Table 2, [a] standard error from three, [c] error from two independent measurements): 7.4 µM; Ki ([3]; Table 2, read-out: FKBP12.6 Ki): > 80000 nM
COc1ccc(CC[C@H]2OC(=O)[C@@H]3CCCCN3C(=O)[C@@H](C3CCCCC3)c3cc(OC)c(OC)c(c3)OCCCCCOc3cccc2c3)cc1OC [Compound 44] | 88 nM | 0.043 µM | 65 nM | –
COc1ccc(CC[C@H]2OC(=O)[C@@H]3CCCCN3C(=O)[C@@H](C3CCCCC3)NC(=O)[C@H](C)NC(=O)COc3cccc2c3)cc1OC [Compound 91, (2R,5S,12R,15S)-12-cyclohexyl-2-[2-(3,4-dimethoxyphenyl)ethyl]-15-methyl-3,19-dioxa-10,13,16-triazatricyclo[18.3.1.0^5,10]tetracosa-1(24),20,22-triene-4,11,14,17-tetrone] | – | – | – | Ki ([1]; Table 2, read-out: FKBP12 Ki): > 80000 nM; affinity (in words) [2]: bound more weakly; Ki ([3]; Table 2, read-out: FKBP12.6 Ki): > 80000 nM
COc1ccc(CC[C@H]2OC(=O)[C@@H]3CCCCN3C(=O)[C@@H](C3CCCCC3)c3cc(OC)c(OC)c(c3)OCCCOc3cccc2c3)cc1OC [Compound 58] | 401 nM | 0.054 µM | 87 nM | –
COc1ccc(CCC2OC(=O)C3CCCCN3C(=O)C(C3CCCCC3)c3cc(OC)c(OC)c(c3)OCC(O)C(O)COc3cccc2c3)cc1OC (single isomer, unassigned) [Compound 64b] | 34 nM | 0.013 µM | 17 nM | –
COc1ccc(CC[C@H]2OC(=O)[C@@H]3CCCCN3C(=O)[C@@H](C3CCCCC3)c3cc(OC)c(c(OC)c3)OCCOCCCCOc3cccc2c3)cc1OC [Compound 41] | 449 nM | 0.118 µM | 230 nM | –
COc1ccc(CC[C@H]2OC(=O)[C@@H]3CCCCN3C(=O)[C@@H](C3CCCCC3)c3cc(OC)c(c(OC)c3)OCC(O)C(O)COc3cccc2c3)cc1OC (mixture of isomers) [Compound 63] | 97 nM | 0.011 µM | 83 nM | –
COc1ccc(CC[C@H]2OC(=O)[C@@H]3CCCCN3C(=O)[C@@H](C3CCCCC3)c3cc(OC)c(c(OC)c3)OCCCOc3cccc2c3)cc1OC [Compound 56] | 384 nM | 0.067 µM | 211 nM | –
COc1ccc(CC[C@H]2OC(=O)[C@@H]3CCCCN3C(=O)[C@@H](C3CCCCC3)NC(=O)C3(CCCC3)NC(=O)COc3cccc2c3)cc1OC [Compound 88, (2′R,5'S,12′R)-12′-cyclohexyl-2′-[2-(3,4-dimethoxyphenyl)ethyl]-3′, 19′-dioxa-10′, 13′, 16′-triazaspiro[cyclopentane-1,15′-tricyclo[18.3.1.0^5,10]tetracosane]-1′(24′),20′, 22′-triene-4′, 11′, 14′, 17′-tetrone] | – | – | – | Ki ([1]; Table 2, read-out: FKBP12 Ki): > 80000 nM; Ki ([2]; affinity, same values as Table 2 FKBP51FK1): 1.3 µM; Ki ([3]; Table 2, read-out: FKBP12.6 Ki): > 80000 nM
COc1ccc(CC[C@H]2OC(=O)[C@@H]3CCCCN3C(=O)[C@@H](C3CCCCC3)c3cc(OC)c(c(OC)c3)OCCOc3cccc2c3)cc1OC [Compound 55] | 412 nM | 0.064 µM | 190 nM | –
COc1ccc(CC[C@H]2OC(=O)[C@@H]3CCCCN3C(=O)[C@@H](C3CCCCC3)c3cc(OC)c(c(OC)c3)OC/C=C\COc3cccc2c3)cc1OC [31-(Z)] | 261 nM | 0.07 µM | 328 nM | –
COc1ccc(CC[C@@H](OC(=O)[C@@H]2CCCCN2C(=O)[C@H](c2cc(OC)c(OC)c(OC)c2)C2CCCCC2)c2cccc(OCC(=O)O)c2)cc1OC [SAFit1, reference compound] | – | – | – | Ki ([1]; Table 2, read-out: FKBP12 Ki): 163 ± 9 nM; Ki ([2]; read-out: FKBP51FK1 Ki, Table 2, [a] standard error from three, [c] error from two independent measurements): 0.004 ± 0.001 µM; Ki ([3]; Table 2, read-out: FKBP12.6 Ki): 19 ± 2 nM
COc1ccc(CCC2OC(=O)C3CCCCN3C(=O)C(C3CCCCC3)c3cc(OC)c(OC)c(c3)OC/C=C/COc3cccc2c3)cc1OC (stereo not shown) [35-(E)] | – | – | – | Ki ([1]; Table 1, unit μM printed in the cell, read-out: Ki FKBP12): > 100000 nM; Ki ([2]; Ki FKBP51FK1, Table 1, unit μM printed in the cell): > 5 µM; Ki ([3]; Table 1, unit μM printed in the cell, read-out: Ki FKBP12.6): > 100000 nM
COc1ccc(CCC2OC(=O)C3CCCCN3C(=O)C(C3CCCCC3)c3cc(OC)c(OC)c(c3)OC/C=C\COc3cccc2c3)cc1OC (stereo not shown) [35-(Z)] | 173 nM | 0.093 µM | 192 nM | –
